Reference: US4994479A, “Phenylene derivatives and anti-allergic use thereof” (Yamanouchi Pharmaceutical Co., Ltd., priority 1985, dated 1991)

Experiments:
[1] = test system: SRS-A-induced contractions of guinea-pig ileum; experiment: Inhibition of SRS-A-induced contractions of isolated guinea-pig ileum; design: species or system guinea-pig (male Hartley); details: for IC50: Cavia porcellus, 20 min, submaximal concentration of SRS-A, incubation 20 minutes; for anti-SRS-A activity: in words
Description: (§1) Male Hartley guinea- pigs, weighing 500 to 700 g were sacrificed by a blow on the head. The ileum and tracheal strips prepared according to the method of Constantine (1965) were suspended with 1.0 g tension in an organ bath containing 10 ml of Tyrode solution equilibrated with a mixture of 95% O2 and 5% CO2 at 37° C. The tissues were equilibrated for 60 minutes; during this period the Tyrode solution was replaced every 15 minutes and the loading tension was adjusted to 1.0 g. The developed tension of the tissues was measured isometrically with a strain gauge transducer, and recorded on a Recticorder. Both the contractile response of the ileum to submaximal concentration of SRS-A (derived from guinea-pig lung) and tracheal response to 10^-8 M LTD4 were recorded in the absence and then the presence of various concentrations of test compounds. The incubation time of the compounds was 20 minutes.

[2] = test system: LTD4-enhanced vascular permeability; experiment: Inhibition of LTD4-enhanced vascular permeability in guinea-pigs; assay type: in vivo, guinea-pig (male Hartley); details: for ED50: Cavia porcellus, 30 minutes before intradermal 5 ng LTD4; for ED50 / inhibition of LTD4-enhanced vascular permeability: oral; for anti-Leukotriene effect by oral route / inhibition of LTD4-enhanced vascular permeability: in words; for inhibition of LTD4-enhanced vascular permeability: 30 minutes before LTD4
Description: Male Hartley guinea-pigs weighing 270 to 305, g starved for 16 hours, were intradermally injected with 5 ng LTD4 in a volume of 0.1 ml into two sites on the shaved back. In addition, 0.1 ml of vehicle was injected intradermally in each animal to see non-specific irritation. One ml of saline containing 1% Evans […] was intravenously injected 2 minutes before LTD4 injection. The leaked dye at the site of LTD4 or vehicle injection was extracted according to the method of Harada et al. (1971) and measured photometrically at 620 nm. The LTD4 -induced skin reaction was expressed as a difference in the amount of dye between LTD4 and vehicle. Test compounds were orally administered 30 minutes before LTD4 injection.

[3] = test system: LTD4-induced contractions of guinea-pig trachea; experiment: Inhibition of LTD4-induced contractions of isolated guinea-pig trachea; design: species or system guinea-pig (male Hartley); details: for IC50: Cavia porcellus, 20 min, 10^-8 M LTD4, incubation 20 minutes; for inhibition of contractions induced by LTD4: in words
Description: as §1

Row | SMILES | IC50 [1] | anti-SRS-A activity [1] | ED50 [2] | anti-Leukotriene effect by oral route [2] | inhibition of LTD4-enhanced vascular permeability [2] | IC50 [3] | inhibition of contractions induced by LTD4 [3]
1 | CCOC(=O)CCc1ccccc1NC(=O)c1ccc(OCCCCc2ccccc2)cc1 [Example 10, Ethyl 3-[o-[p-(4-phenylbutoxy)benzamido]phenyl]propionate] | 18 nM | potent anti-SRS-A activity | – | – | – | – | –
2 | O=C(O)CCc1ccccc1NC(=O)c1ccc(OCCCCc2ccccc2)cc1 [Example 18, 3-[o-[p-(4-Phenylbutoxy)benzamido]phenyl]propionic acid] | 33 nM | potent anti-SRS-A activity | – | – | – | – | –
3 | CCCCCCCOc1cccc(C(=O)Nc2ccccc2OCc2nnn[nH]2)c1 [Example 23, 3-Heptyloxy-2'-(5-tetrazolylmethoxy)benzanilide] | 44 nM | potent anti-SRS-A activity | 22.8 mg/kg | potent anti-Leukotriene effect | dose-dependently inhibited | 400 nM | inhibited the contractions induced by LTD4
4 | Cc1ccc(OCC(=O)O)c(NC(=O)c2ccc(OCCCCc3ccccc3)cc2)c1 [Example 39, 4-methyl-2-[p-(4-phenylbutoxy)benzamido]phenoxyacetic acid] | 7.3 nM | potent anti-SRS-A activity | 36.1 mg/kg | potent anti-Leukotriene effect | dose-dependently inhibited | 250 nM | inhibited the contractions induced by LTD4
5 | O=C(O)COc1ccc(Cl)cc1NC(=O)c1ccc(OCCCCc2ccccc2)cc1 [Example 40, 4-Chloro-2-[p-(4-phenylbutoxy)benzamido]phenoxyacetic acid] | 3.6 nM | potent anti-SRS-A activity | 5.5 mg/kg | potent anti-Leukotriene effect | dose-dependently inhibited | 57 nM | inhibited the contractions induced by LTD4
6 | O=C(O)COc1ccc([N+](=O)[O-])cc1NC(=O)c1ccc(OCCCCc2ccccc2)cc1 [Example 41, 4-Nitro-2-[p-(4-phenylbutoxy)benzamido]phenoxyacetic acid] | 7.4 nM | potent anti-SRS-A activity | – | – | – | – | –
7 | O=C(O)COc1ccccc1NC(=O)c1ccc(OCCCCc2ccccc2)cc1 [Example 42, o-[p-(4-Phenylbutoxy)benzamido]phenoxyacetic acid] | 81 nM | potent anti-SRS-A activity | – | – | – | – | –
